From patent US20190352276A1, “INHIBITORS OF BRUTON'S TYROSINE KINASE” (Joint Stock Company "Biocad", priority 2016, published 2019)
pIC50: −log10 of the molar value.

Columns and labels:
[1] = tested on: Mino (mantle cell lymphoma); experiment: Antiproliferative activity, Mino cells (Alamar Blue); assay type: cell-based; details: Homo sapiens, Table 10, 72 h, average of several tests
How it was run: (§1)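 Cells grown in RPMI-1640 with 10% FBS and gentamicin, seeded ~3*10^4 cells/well, then exposed to compounds (DMSO <1% final) for 72 h at 37 °C, 5% CO2. Viability by Alamar Blue after 14-16 h, fluorescence Ex 540/Em 590 nm; IC50 from four-parameter logistic fit.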

[2] = tested on: Z-138 (mantle cell lymphoma); experiment: Antiproliferative activity, Z-138 cells (Alamar Blue); assay type: cell-based; details: Homo sapiens, Table 10, 72 h, average of several tests
How it was run: as §1

[3] = tested on: DOHH2 (follicular lymphoma); experiment: Antiproliferative activity, DOHH2 cells (Alamar Blue); assay type: cell-based; details: Homo sapiens, DOHH-2, Table 10, 72 h, average of several tests
Description: Antiproliferative activity of BTK inhibitors was measured in cell-based bioassay on B-cells cultures: Mino (mantle cell lymphoma, ATCC® CRL-3000™), Z-138 (mantle cell lymphoma, ATCC® CRL-3001™) and DOHH2 (follicular lymphoma, Creative Bioarray CSC-C0219) using cell viability reagent Alamar Blue (Invitrogen, #DAL 1100). Cells were cultured in 10% FB S-supplemented (HyClone, #SH3008803/Gibco, #16140-071) RPMI-1640 (PanEco, #S330p) for at least 1 passage after thawing, washed with PBS and passaged in 96-well culture plates (Corning, #3599) with growth medium with 10% FBS (HyClone, #SH3008803/Gibco, #16140-071) and antibiotic (50 μg/ml of gentamicin (Biolot, #1.3.16))≈3*10^4 cells in 50 μl of medium per well.
The compounds were dissolved in DMSO and diluted with the assay medium to final concentrations ranging from […]. 150 μl of each diluted compound were then added to each well (final concentration of DMSO was less than 1%) and incubated at 37° C. in an incubator under 5% of CO2 for 72 h. After incubation, 20 μl of Alamar Blue reagent (Invitrogen, #DAL1100) were added to each well. The plates were shaked on an orbital shaker (Biosan, Latvia) and then incubated for 14-16 hours at 37° C. in the incubator.
The number of living cells were estimated, measuring the fluorescence signal at the excitation wavelength (REx) of 540 nm and the emission wavelength (λEm) of 590 nm on a microplate reader (Tecan Infinite M200Pro, Switzerland).
For each compound, IC50 was calculated using Magellan 7.2 software (Tecan, Switzerland) approximating experimental points by four-parameter logistic model with the optimization by Levenberg-Marquardt.

[4] = General cytotoxicity on HepG2 cells (CC50; therapeutic index CC50 HepG2/IC50 Mino); assay type: cell-based; details: human, HepG2 cells (hepatocellular carcinoma); Table 10; 72 hours, Alamar Blue; average of several tests
How it was run: (§2)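 Cells seeded at 2*10^4 per well in DMEM, compounds added after 24 h at 200 μM to 4 μM final and incubated 72 h. Viability read with Alamar Blue to derive CC50; therapeutic index is CC50 (HepG2) divided by IC50 (Mino).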

[5] = tested on: HepG2 cells (hepatocellular carcinoma); experiment: as above; assay type: cell-based; details: Table 10; therapeutic index
How it was run: as §2

[6] = Stability in human blood plasma; details: 10 μM in pooled human blood plasma, incubated 4 hours at 37° C.
Description: To assess the blood plasma stability of the drug candidates, we used pooled human blood plasma taken from ten healthy donors. The initial solution (10 Mm in DMSO) was diluted with pooled blood plasma to 10 μM (test solution). The test solution had been incubated for 4 hours in a dry block heater at 37° C. We determined peak areas of the compounds corresponding to the start of the test (before incubating) and the end of the test (after incubating in a dry block heater at 37° C.) by HPLC using Agilent1200 chromatograph (Agilent, USA) with preliminary protein precipitation with acetonitrile. We used gradient elution (1 mL/min flow rate). We determined amount of substance in the sample in % after incubation.
We evaluated the stability of the compounds.

[7] = Permeability through the monolayer of Caco-2 cells; assay type: in vitro ADME; details: human; for Papp A→B at 2 h, 10 μM / Papp B→A at 2 h, 10 μM: 2 h at 37° C.; for efflux ratio at 2 h, 10 μM: read-out: efflux (Papp B-A/Papp A-B)
Description: Assessment of permeability through the monolayer of Caco-2 cells allows to evaluate the ability of the candidate compounds to penetrate through biological membranes by active and passive transport.
Caco-2, the cells of the intestinal epithelium, had been cultured in transwell plate inserts with the filters (with pores of 0.4 μm, BD Falcon with High Density, #353495) for 21 days, and then the integrity of the monolayer were estimated with Lucifer Yellow dye (Sigma-Aldrich, USA) by standard protocol. When setting the A→B transfer, solutions of test substances were added in a buffer with pH 6.5 (Hanks solution, 10 mM HEPES, 15 mM glucose solution) with the concentration of 10 μM into the upper chamber; the lower chamber was filled with a buffer with pH 7.4 (Hanks solution, 10 mM HEPES, 15 mM glucose solution, 1% BSA). When setting B→A transfer, the upper chamber was filled with the buffer with pH 6.5, and solutions of the test substances were added in the buffer with pH 7.4 at the concentration of 10 μM in the lower chamber. Propranolol was used as a control substance (as it has high permeability).
We used gradient elution (1 mL/min flow rate). We determined the areas of peaks corresponding to the compounds. On the basis of peak areas in the calibration standards we determined the concentration of compound in the initial solution and in the samples from the wells of the upper and lower chambers.
Papp, permeability through the cell layer, was calculated using the following formula:
Papp=(C(t)*V)/(C(0)*t*Area), where
Papp is the effective constant of permeability, m/s V is the volume of solution (0.8 ml in A→B test, 0.2 ml in B→A test), ml Area is the surface area of the membrane (0.33 cm^2), cm^2 t is the time of incubation (7200 sec), sec C(0) is the concentration of the initial solution, μM C(t) is the concentration of the solution after 2 hours (the concentration in the sample from the well of the lower chamber in A→B test; the concentration in the sample from the well of the top chamber in B→A test), μM
The value was calculated with the following formula:
efflux=Papp B-A/Papp A-B, where
Papp A-B is the value of the permeability in the direct test (A→B); Papp B-A is the value of the permeability in the backward test in (B→A).

[8] = Chemical stability in artificial gastric fluid (SGF without enzymes); details: 10 μM in SGF without enzymes, pH=1.4, 37° C.

| pIC50 [1] | pIC50 [2] | pIC50 [3] | Amount of substance in the sample, % (stability in human blood plasma) [6] [%] | Papp A→B at 2 h, 10 μM [7] [×10⁻⁶ cm/s] | Papp B→A at 2 h, 10 μM [7] [×10⁻⁶ cm/s] | efflux ratio at 2 h, 10 μM [7] | Amount of substance in the sample in % (chemical stability) [8] [%] | Compound | CC50 at 72 h [4] [µM] | CC50 (HepG2)/IC50 (Mino) [5] |
| --- | --- | --- | --- | --- | --- | --- | --- | --- | --- | --- |
| 4.68 | 4.68 | 4.63 | 91.9 |  |  |  |  | C=CC(=O)N1CCC[C@@H](n2nc(-c3ccc(-n4ccc(=O)cc4)cc3F)c3cncc(Cl)c32)C1 [BCD-BTK-204, (R)-1-(4-(1-(1-acryloylpiperidin-3-yl)-7-chloro-1H-pyrazolo[4,3-c]pyridin-3-yl)-3-fluorophenyl)pyridin-4(1H)-one] | 62 | 2.95 |
| 4.78 | 4.60 | 4.70 | 88.6 |  |  |  |  | C=CC(=O)N1CCC[C@@H](n2nc(-c3ccc(-n4ccc(=O)cc4)c(F)c3)c3cncc(Cl)c32)C1 [BCD-BTK-205, (R)-1-(4-(1-(1-acryloylpiperidin-3-yl)-7-chloro-1H-pyrazolo[4,3-c]pyridin-3-yl)-2-fluorophenyl)pyridin-4(1H)-one] | 57.2 | 3.45 |
| 5.25 | 4.76 | 4.64 | 94.8 | 19.2 | 3.55 | 0.18 |  | C=CC(=O)N1CCC[C@@H](n2nc(-c3ccc(Oc4ccncc4)cc3)c3cncc(F)c32)C1 [BCD-BTK-211, (R)-1-(3-(7-fluoro-3-(4-(pyridin-4-yloxy)phenyl)-1H-pyrazolo[4,3-c]pyridin-1-yl)piperidin-1-yl)prop-2-en-1-one] | 45.2 | 7.97 |
| 5.50 | 5.01 | 4.71 |  | 8.39 | 5.17 | 0.62 |  | C=CC(=O)N1CCC[C@@H](n2nc(-c3ccc(Oc4ccncc4C#N)cc3)c3cncc(C#N)c32)C1 [BCD-BTK-213, (R)-1-(1-acryloylpiperidin-3-yl)-3-(4-(3-cyanopyridin-4-yloxy)phenyl)-1H-pyrazolo[4,3-c]pyridine-7-carbonitrile] | > 100 | >31.3 |
| 5.67 | 4.92 | 5.02 | 80.4 | 29.6 | 8.72 | 0.29 |  | C=CC(=O)N1CCC[C@@H](n2nc(-c3ccc(Oc4cccnc4C#N)cc3)c3cncc(C#N)c32)C1 [BCD-BTK-216, (R)-1-(1-acryloylpiperidin-3-yl)-3-(4-(2-cyanopyridin-3-yloxy)phenyl)-1H-pyrazolo[4,3-c]pyridine-7-carbonitrile] | 40.1 | 18.77 |
| 4.76 | 4.86 | 4.79 | 90.8 | 37.3 | 18.9 | 0.51 |  | C=CC(=O)N1CCC[C@@H](n2nc(-c3ccc(Oc4ccncc4C#N)cc3)c3cncc(F)c32)C1 [BCD-BTK-217, (R)-4-(4-(1-(1-acryloylpiperidin-3-yl)-7-fluoro-1H-pyrazolo[4,3-c]pyridin-3-yl)phenoxy)nicotinonitrile] | 40.1 | 2.31 |
| 4.98 | 5.30 | 5.52 | 80.5 |  |  |  | 91.3 | C=CC(=O)N1CCC[C@@H](n2nc(-c3ccc(C(=O)Nc4cc(C(F)(F)F)ccn4)cc3)c3cncc(C#N)c32)C1 [BCD-BTK-221, 4-{7-cyano-1-[1-(prop-2-enoyl)piperidin-3-yl]-1H-pyrazolo[4,3-c]pyridin-3-yl}-N-[4-(trifluoromethyl)pyridin-2-yl]benzamide] | 5.32 | 0.51 |
| 4.71 | 4.58 | 4.58 | 100.0 | 5.06 | 6.97 | 1.38 | 100 | C=CC(=O)N1CCC[C@@H](n2nc(-c3ccc(Oc4cncc(C(N)=O)c4)cc3)c3cncc(Cl)c32)C1 [BCD-BTK-222, 5-(4-{7-chloro-1-[(3R)-1-(prop-2-enoyl)piperidin-3-yl]-1H-pyrazolo[4,3-c]pyridin-3-yl}phenoxy)pyridine-3-carboxamide] | 50.2 | 2.60 |
| 4.79 | 4.56 | 4.77 | 90.7 |  |  |  | 100 | CC#CC(=O)N1CCC[C@H]1Cn1nc(-c2ccc(Oc3ccncc3)cc2)c2cncc(Cl)c21 [BCD-BTK-259, (S)-1-(2-((7-chloro-3-(4-(pyridin-4-yloxy)phenyl)-1H-pyrazolo[4,3-c]pyridin-1-yl)methyl)pyrrolidin-1-yl)but-2-yn-1-one] | 47.6 | 2.91 |
| 4.99 | 4.11 | 4.57 | 91.0 |  |  |  | 99.3 | C=CC(=O)N1CCC[C@@H](n2nc(-c3ccc(C(=O)Nc4cc(C(F)(F)CCC)ccn4)cc3)c3cncc(C#N)c32)C1 [BCD-BTK-268, (R)-4-(1-(1-acryloylpiperidin-3-yl)-7-cyano-1H-pyrazolo[4,3-c]pyridin-3-yl)-N-(4-(1,1-difluorobutyl)pyridin-2-yl)benzamide] | > 100 | >9.69 |
| 4.75 | 4.52 | 4.69 |  |  |  |  | 99.8 | C=CC(=O)N1CCC[C@@H](n2nc(-c3cnc(C(=O)Nc4cccc(F)n4)nc3)c3cncc(Cl)c32)C1 [BCD-BTK-277, (R)-5-(1-(1-acryloylpiperidin-3-yl)-7-chloro-1H-pyrazolo[4,3-c]pyridin-3-yl)-N-(6-fluoropyridin-2-yl)pyrimidine-2-carboxamide] | 41.9 | 2.33 |
